The values that follow come from US20170107207A1, “AMINOPYRAZOLONE DERIVATIVE” (DAIICHI SANKYO COMPANY, LIMITED, priority 2014, published 2017).

Format in all cases: cell-based
The subject of one assay is SK-MEL-28. Put plainly: Cell growth inhibition test, SK-MEL-28. The conditions noted are these: Homo sapiens, 72 h; SK-MEL-28, Skin cancer, 3 days, CellTiter-Glo. Here is the method: (§1) A cell growth inhibition test was carried out by treating a cultured cancer cell line with a test compound for a given period and then counting the number of viable cells by CellTiter-Glo Luminescent Cell Viability Assay (manufactured by Promega Corp.).
(§2) The following cells were inoculated to a 384-well plate containing the compound prepared in advance at predetermined concentrations. […]
(§3) The cells thus inoculated were cultured at 37° C. for 3 days under 5% CO2. […] Then, luminescence intensity was measured using a plate reader.
(§4) The number of viable cells and luminescence intensity have been confirmed to correlate with each other. Therefore, the rate of cell growth was calculated according to the following expression: Rate of cell growth (T/C %) of a test compound-supplemented well=100×[(B−C)/(A−C)] wherein A represents the luminescence intensity (final culture date) of a test compound-free well; B represents the luminescence intensity (final culture date) of a test compound-containing well; and C represents the luminescence intensity (day of cell inoculation) of a well at the start of contact of the cells with the test compound.
(§5) T/C % at the concentration of each of the serially diluted test compounds was determined. […]
A general note: ATP-based viability assays read luminescence as a measure of living cells.

In a further assay the test system is KASUMI-1. Put plainly: Cell growth inhibition test, KASUMI-1. The conditions noted are these: Homo sapiens, 72 h; KASUMI-1, Leukemia, 3 days, CellTiter-Glo. Here is the method:
as §1, §2, §3, §4, §5

The next assay concerns A-172. The assay can be described thus: Cell growth inhibition test, A-172. The conditions noted are these: Homo sapiens, 72 h; A-172, Brain tumor Central Nerve System, 3 days, CellTiter-Glo. Here is the method:
as §1, §2, §3, §4, §5

Another assay relates to OCI-LY7. The assay can be described thus: Cell growth inhibition test, OCI-LY7. The conditions noted are these: Homo sapiens, 72 h; OCI-LY7, Lymphoma, 3 days, CellTiter-Glo. Here is the method:
as §1, §2, §3, §4, §5

In the next assay the test system is AN3CA. Put plainly: Cell growth inhibition test, AN3CA. The conditions noted are these: Homo sapiens, AN3-CA, 72 h, Endometrial cancer, 3 days, CellTiter-Glo. On the procedure: as §1, §2, §3, §4, §5
The next assay deals with FaDu. Put plainly: Cell growth inhibition test, FaDu. The conditions noted are these: Homo sapiens, 72 h, Head and neck cancer, 3 days, CellTiter-Glo. On the procedure: as §1, §2, §3, §4, §5
The subject of the next assay is HT-1080. The assay can be described thus: Cell growth inhibition test, HT-1080. The conditions noted are these: Homo sapiens, 72 h; HT-1080, Bone and soft tissue tumor, 3 days, CellTiter-Glo. On the procedure:
as §1, §2, §3, §4, §5

The test system of a further assay is NCI-H1975. The assay can be described thus: Cell growth inhibition test, NCI-H1975. The conditions noted are these: Homo sapiens, 72 h; NCI-H1975, Lung cancer, 3 days, CellTiter-Glo. On the procedure:
as §1, §2, §3, §4, §5

The subject of another assay is D283 Med. Put plainly: Cell growth inhibition test, D283 Med. The conditions noted are these: Homo sapiens, 72 h, Brain tumor Central Nerve System, 3 days, CellTiter-Glo. On the procedure: as §1, §2, §3, §4, §5
For a further assay, the system named is ACHN. Put plainly: Cell growth inhibition test, ACHN. The conditions noted are these: Homo sapiens, 72 h, Kidney cancer, 3 days, CellTiter-Glo. Here is the method: as §1, §2, §3, §4, §5
A further assay concerns SK-BR-3. The assay can be described thus: Cell growth inhibition test, SK-BR-3. The conditions noted are these: Homo sapiens, 72 h; SK-BR-3, Breast cancer, 3 days, CellTiter-Glo. Here is the method: as §1, §2, §3, §4, §5
Another assay has as its system HUH-7. The assay can be described thus: Cell growth inhibition test, HUH-7. The conditions noted are these: Homo sapiens, 72 h; HUH-7, Liver cancer, 3 days, CellTiter-Glo. On the procedure:
as §1, §2, §3, §4, §5

For another assay, the system named is MDA-MB-231. The assay can be described thus: Cell growth inhibition test, MDA-MB-231. The conditions noted are these: Homo sapiens, 72 h; MDA-MB-231, Breast cancer, 3 days, CellTiter-Glo. Here is the method: as §1, §2, §3, §4, §5
In the next assay the test system is COR-L23. Put plainly: Cell growth inhibition test, COR-L23. The conditions noted are these: Homo sapiens, 72 h; COR-L23, Lung cancer, 3 days, CellTiter-Glo. Here is the method:
as §1, §2, §3, §4, §5

For the next assay, the system named is DMS 273. Put plainly: Cell growth inhibition test, DMS 273. The conditions noted are these: Homo sapiens, 72 h; DMS 273, Lung cancer, 3 days, CellTiter-Glo. Here is the method: as §1, §2, §3, §4, §5
For the next assay, the system named is A549. Put plainly: Cell growth inhibition test, A549. The conditions noted are these: Homo sapiens, 72 h; A549, Lung cancer, 3 days, CellTiter-Glo. On the procedure:
as §1, §2, §3, §4, §5

A further assay concerns MOLT-3. Put plainly: Cell growth inhibition test, MOLT-3. The conditions noted are these: Homo sapiens, 72 h; MOLT-3, Leukemia, 3 days, CellTiter-Glo. Here is the method:
as §1, §2, §3, §4, §5

A further assay relates to MOLT-4. Put plainly: Cell growth inhibition test, MOLT-4. The conditions noted are these: Homo sapiens, 72 h; MOLT-4, Leukemia, 3 days, CellTiter-Glo. Here is the method: as §1, §2, §3, §4, §5
The test system of a further assay is COLO 829. Put plainly: Cell growth inhibition test, COLO 829. The conditions noted are these: Homo sapiens, 72 h; COLO 829, Skin cancer, 3 days, CellTiter-Glo. On the procedure: as §1, §2, §3, §4, §5

As to `CCOc1ccc(Cl)cc1C(=O)NCC(C)(C)CC(=O)Nc1c([C@H](C)CN(C)C)n(C)n(-c2ccccc2)c1=O` [Example 68, 5-Chloro-N-[4-({5-[(1R)-2-(dimethylamino)-1-methylethyl]-1-methyl-3-oxo-2-phenyl-2,3-dihydro-1H-pyrazol-4-yl}amino)-2,2-dimethyl-4-oxobutyl]-2-ethoxybenzamide], the GI50 (in general, the concentration giving 50% growth inhibition) in the assay with SK-MEL-28 amounted to 590 nM; in the assay on KASUMI-1, 140 nM; with A-172 it was 380 nM; with OCI-LY7, 130 nM; in the assay on AN3CA, 740 nM; in the assay on FaDu, 210 nM. The concentration for 50% growth inhibition (GI50) worked out at 220 nM with HT-1080; 490 nM in the assay on NCI-H1975; 130 nM in the assay with D283 Med; 1800 nM with ACHN; 520 nM in the assay with SK-BR-3; 670 nM with HUH-7. Moreover, the GI50 in the assay with MDA-MB-231 was determined as 350 nM; in the assay on COR-L23, 200 nM; in the assay on DMS 273, 310 nM; in the assay with A549, 910 nM; in the assay on MOLT-3, 110 nM; with MOLT-4, 130 nM. The same molecule yielded a GI50 in the assay on COLO 829 of 200 nM.

Turning to `CCOc1ncc(Cl)cc1C(=O)NCC(C)(C)CC(=O)Nc1c([C@H](C)CN(C)C)n(C)n(-c2ccccc2)c1=O` [Example 73, 5-Chloro-N-[4-({5-[(1R)-2-(dimethylamino)-1-methylethyl]-1-methyl-3-oxo-2-phenyl-2,3-dihydro-1H-pyrazol-4-yl}amino)-2,2-dimethyl-4-oxobutyl]-2-ethoxypyridine-3-carboxamide], the 50% growth inhibitory concentration (GI50) in the assay on SK-MEL-28 was found to be 920 nM; in the assay on KASUMI-1, 240 nM; with A-172, 600 nM; in the assay with OCI-LY7 it was 370 nM; in the assay with AN3CA it was 2200 nM; in the assay with FaDu it was 460 nM. Further, the GI50 in the assay with HT-1080 is 520 nM; in the assay on NCI-H1975, 900 nM; in the assay on D283 Med, 310 nM; in the assay with ACHN, 2500 nM; with SK-BR-3, 1000 nM; in the assay on HUH-7, 900 nM. The GI50 with MDA-MB-231 came to 890 nM; in the assay on COR-L23, 550 nM; in the assay with DMS 273, 780 nM; with A549, 2000 nM; with MOLT-3, 190 nM; with MOLT-4 it was 180 nM. The molecule further came in with a GI50 in the assay on COLO 829 of 480 nM.

`CCOc1cc(F)c(Cl)cc1C(=O)NCC(C)(C)CC(=O)Nc1c(COC)n(C)n(-c2ccccc2)c1=O` [Example 113, 5-Chloro-2-ethoxy-4-fluoro-N-(4-{[5-(methoxymethyl)-1-methyl-3-oxo-2-phenyl-2,3-dihydro-1H-pyrazol-4-yl]amino}-2,2-dimethyl-4-oxobutyl)benzamide]: the GI50 turned out to be 800 nM with SK-MEL-28; 230 nM with KASUMI-1; 490 nM in the assay on A-172; 150 nM in the assay with OCI-LY7; 1400 nM in the assay on AN3CA; 350 nM in the assay with FaDu. For the same molecule, the concentration for 50% growth inhibition (GI50) with HT-1080 is 350 nM; with NCI-H1975, 810 nM; in the assay with D283 Med, 230 nM; in the assay with ACHN, 970 nM; with SK-BR-3, 650 nM; with HUH-7, 360 nM. Besides, the GI50 in the assay with MDA-MB-231 was 770 nM; in the assay on COR-L23 it was 420 nM; in the assay on DMS 273, 540 nM; with A549, 1100 nM; in the assay with MOLT-3, 150 nM; with MOLT-4 it was 160 nM. This molecule also yielded a GI50 in the assay with COLO 829 of 350 nM.
